In patent EP4635500A1, “THERAPEUTIC AGENT FOR BACTERIAL INFECTION” (Sumitomo Pharma Co., Ltd., priority 2022, dated 2024):
Converted amounts (≈) assume the structure as drawn. Read-outs that look alike come from different tables or passages of the source.

Experiments:
P. aeruginosa = experiment: MIC, broth microdilution, CDC/FDA Antibiotic Resistance Isolate Bank (Example 7, Tables 10, 15); assay type: cell-based; settings: for MIC: Pseudomonas aeruginosa, read-out: MIC
A. baumannii = experiment: MIC, broth microdilution, CDC/FDA Antibiotic Resistance Isolate Bank (Example 7, Tables 9, 13, 14); assay type: cell-based, Acinetobacter baumannii; settings: for MIC: read-out: MIC
[1] = 26 metallo-carbapenemase-producing P. aeruginosa strains, β-lactamase inhibitor µg/mL in parentheses
[2] = 96 strains of P. aeruginosa, β-lactamase inhibitor µg/mL in parentheses
[3] = MIC distribution, metallo-β-lactamase-producing A. baumannii, inhibitor µg/mL in parentheses

O=C(O)c1cn(C2CC2)c2cc(N3CCNCC3)c(F)cc2c1=O [Ciprofloxacin, ciprofloxacin]
MIC against 26 metallo-carbapenemase-producing strains MIC50 (P. aeruginosa; [1]): 32 µg(mL) | MIC against 26 metallo-carbapenemase-producing strains MIC90 (P. aeruginosa; [1]): 64 µg(mL) | MIC against 96 strains of P. aeruginosa MIC50 (P. aeruginosa; [2]): 16 µg(mL) | MIC against 96 strains of P. aeruginosa MIC90 (P. aeruginosa; [2]): 64 µg(mL) | MIC (P. aeruginosa; P. aeruginosa KUB No. 5602, AR Bank # 105): > 64 µg/mL | MIC (P. aeruginosa; P. aeruginosa KUB No. 5665, AR Bank # 232): 2 µg/mL (≈ 6.04 µM) | MIC (P. aeruginosa; P. aeruginosa KUB No. 5666, AR Bank # 23): 0.5 µg/mL (≈ 1.51 µM) | MIC (P. aeruginosa; P. aeruginosa KUB No. 5667, AR Bank # 234): 2 µg/mL (≈ 6.04 µM) | MIC (P. aeruginosa; P. aeruginosa KUB No. 5669, AR Bank # 236): 4 µg/mL (≈ 12.1 µM) | MIC (P. aeruginosa; P. aeruginosa KUB No. 5675, AR Bank # 242): 8 µg/mL (≈ 24.1 µM) | MIC (P. aeruginosa; P. aeruginosa KUB No. 5676, AR Bank # 243): 8 µg/mL (≈ 24.1 µM) | MIC (P. aeruginosa; P. aeruginosa KUB No. 5705, AR Bank # 272): 8 µg/mL (≈ 24.1 µM) | MIC (P. aeruginosa; P. aeruginosa KUB No. 5747, AR Bank # 351): 2 µg/mL (≈ 6.04 µM) | MIC (P. aeruginosa; P. aeruginosa KUB No. 5748, AR Bank # 352): 4 µg/mL (≈ 12.1 µM) | MIC (P. aeruginosa; P. aeruginosa KUB No. 5750, AR Bank # 354): 4 µg/mL (≈ 12.1 µM) | MIC (P. aeruginosa; P. aeruginosa KUB No. 5754, AR Bank # 358): 4 µg/mL (≈ 12.1 µM) | MIC (P. aeruginosa; P. aeruginosa KUB No. 5755, AR Bank # 359): 4 µg/mL (≈ 12.1 µM) | MIC (P. aeruginosa; P. aeruginosa KUB No. 5798, AR Bank # 455): 1 µg/mL (≈ 3.02 µM) | MIC (P. aeruginosa; P. aeruginosa KUB No. 5801, AR Bank # 458): 0.5 µg/mL (≈ 1.51 µM) | MIC (P. aeruginosa; P. aeruginosa KUB No. 5802, AR Bank # 459): 4 µg/mL (≈ 12.1 µM) | MIC (P. aeruginosa; P. aeruginosa KUB No. 5804, AR Bank # 862): 1 µg/mL (≈ 3.02 µM) | MIC (P. aeruginosa; P. aeruginosa KUB No. 5806, AR Bank # 864): > 64 µg/mL | MIC (P. aeruginosa; P. aeruginosa KUB No. 5813, AR Bank # 508): 0.002 µg/mL (≈ 0.00604 µM) | MIC (P. aeruginosa; P. aeruginosa KUB No. 5815, AR Bank # 510): 0.004 µg/mL (≈ 0.0121 µM) | MIC (P. aeruginosa; P. aeruginosa KUB No. 5817, AR Bank # 512): 0.001 µg/mL (≈ 0.00302 µM) | MIC (P. aeruginosa; P. aeruginosa KUB No. 5820, AR Bank # 515): > 0.064 µg/mL | MIC (A. baumannii; Acinetobacter baumannii, A. baumannii KUB No. 5567, AR Bank #70, OXA-58, OXA-100): 8 µg/mL (≈ 24.1 µM) | MIC (A. baumannii; Acinetobacter baumannii, A. baumannii KUB No. 5575, AR Bank #78, OXA-71): > 64 µg/mL | MIC (A. baumannii; Acinetobacter baumannii, A. baumannii KUB No. 5598, AR Bank #101, OXA-24, OXA-65): > 64 µg/mL | MIC (A. baumannii; Acinetobacter baumannii, A. baumannii KUB No. 5706, AR Bank #273, OXA-23, OXA-66): > 64 µg/mL | MIC (A. baumannii; Acinetobacter baumannii, A. baumannii KUB No. 5707, AR Bank #274, OXA-66, OXA-72): > 64 µg/mL | MIC (A. baumannii; Acinetobacter baumannii, A. baumannii KUB No. 5710, AR Bank #277, OXA-24, OXA-65): > 64 µg/mL | MIC (A. baumannii; Acinetobacter baumannii, A. baumannii KUB No. 5713, AR Bank #280, OXA-66): > 64 µg/mL | MIC (A. baumannii; Acinetobacter baumannii, A. baumannii KUB No. 5718, AR Bank #285, OXA-24, OXA-65): > 64 µg/mL | MIC (A. baumannii; Acinetobacter baumannii, KUB No. 5721, AR Bank #288): > 64 µg/mL | MIC (A. baumannii; Acinetobacter baumannii, KUB No. 5722, AR Bank #259): > 64 µg/mL | MIC (A. baumannii; Acinetobacter baumannii, KUB No. 5724, AR Bank #291): > 64 µg/mL | MIC (A. baumannii; Acinetobacter baumannii, KUB No. 5727, AR Bank #294): > 64 µg/mL | MIC (A. baumannii; Acinetobacter baumannii, KUB No. 5728, AR Bank #295): > 64 µg/mL | MIC (A. baumannii; Acinetobacter baumannii, KUB No. 5729, AR Bank #296): > 64 µg/mL | MIC (A. baumannii; Acinetobacter baumannii, KUB No. 5730, AR Bank #297): > 64 µg/mL | MIC (A. baumannii; Acinetobacter baumannii, KUB No. 5732, AR Bank #299): > 64 µg/mL | MIC (A. baumannii; Acinetobacter baumannii, KUB No. 5733, AR Bank #300): > 64 µg/mL | MIC (A. baumannii; Acinetobacter baumannii, KUB No. 5734, AR Bank #301): > 64 µg/mL | MIC (A. baumannii; Acinetobacter baumannii, KUB No. 5735, AR Bank #302): > 64 µg/mL | MIC (A. baumannii; Acinetobacter baumannii, KUB No. 5737, AR Bank #304): > 64 µg/mL | MIC (A. baumannii; Acinetobacter baumannii, KUB No. 5738, AR Bank #305): > 64 µg/mL | MIC (A. baumannii; Acinetobacter baumannii, KUB No. 5739, AR Bank #306): > 64 µg/mL | MIC (A. baumannii; Acinetobacter baumannii, KUB No. 5741, AR Bank #308): > 64 µg/mL | MIC (A. baumannii; Acinetobacter baumannii, KUB No. 5742, AR Bank #309): > 64 µg/mL | MIC (A. baumannii; Acinetobacter baumannii, KUB No. 5743, AR Bank #310): > 64 µg/mL | MIC (A. baumannii; Acinetobacter baumannii, KUB No. 5745, AR Bank #312): 8 µg/mL (≈ 24.1 µM) | MIC80 (A. baumannii; Acinetobacter baumannii, 55 isolates of A. baumannii, read-out: MIC80): > 64 µg/mL | MIC90 (A. baumannii; Acinetobacter baumannii, 55 isolates of A. baumannii, read-out: MIC90): > 64 µg/mL | Number of isolates at MIC 16 µg/mL (A. baumannii; [3]): 1 | Number of isolates at MIC 32 µg/mL (A. baumannii; [3]): 1 | Number of isolates at MIC >32 µg/mL (A. baumannii; [3]): 1 | Number of isolates at MIC >64 µg/mL (A. baumannii; [3]): 1
